Molecular target: T1, Bovine lens aldose reductase (Bos taurus, UniProt P16116)
T1 construct: Bovine lens aldose reductase was separated and partially purified; from tissue; host or cells: bovine lens
Assay: Inhibition of Aldose reductase
Format: biochemical
Settings: for inhibition at 5 µg/mL: read-out: Inhibition at 5 μg/ml
Method: Bovine lens aldose reductase was separated and partially purified by the method of S. Hyman and J. H. Kinoshita [J. Biol. Chem., 240, 877 (1965)] and K. Inagaki, I. Miwa and J. Okuda [Arch. Biochem. Biophys., 316, 337 (1982)], and its activity was determined photometrically by the method of Varma et al. [Biochem. Pharmac., 25, 2505 (1976)]. […]

| Compound | IC50 [nM] | inhibition at 5 µg/mL [%] |
| --- | --- | --- |
| CC(CSc1ccc(CC2SC(=O)NC2=O)cc1)N1CC(COc2cccc(Cl)c2)OC1=O (single isomer, unassigned) [10 (less polar), 5-{4-[2-(5-3'-Chlorophenoxymethyl-2-oxooxazolidin-3-yl)propylthio]benzyl}thiazolidine-2,4-dione] | 3940 | 60.1 |
| CC(COc1ccc(CC2SC(=O)NC2=O)cc1)N1CC(COCCCCc2ccccc2)OC1=O (single isomer, unassigned) [25 (less polar), 5-{4-[2-(5-4'-Phenylbutoxymethyl-2-oxooxazolidin-3-yl)propoxy]benzyl}thiazolidine-2,4-dione] | 3900 | 57.1 |
| CCC(COc1ccc(CC2SC(=O)NC2=O)cc1)N1CC(COc2cccc(Cl)c2)OC1=O (single isomer, unassigned) [47 (less polar), 5-{4-[2-(5-3'-Chlorophenoxymethyl-2-oxooxazolidin-3-yl)butoxy]benzyl}thiazolidine-2,4-dione] | 3170 | 57.6 |
| CC(COc1ccc(CC2SC(=O)NC2=O)cc1)N1CC(COCCCCc2ccccc2)OC1=O (stereo not shown) [25 (polar), 5-{4-[2-(5-4'-Phenylbutoxymethyl-2-oxooxazolidin-3-yl)propoxy]benzyl}thiazolidine-2,4-dione] | 429 | 82 |
| CC(COc1ccc(CC2SC(=O)NC2=O)cc1)NCC(O)COc1cccc(Cl)c1 (stereo not shown) [Example 2, 5-{4-[2-(3-3'-Chlorophenoxy-2-hydroxypropylamino)propoxy]benzyl}thiazolidine-2,4-dione] | 6020 | 63.2 |
| CC(COc1ccc(CC2SC(=O)NC2=O)cc1)N1CC(Cc2ccccc2)OC1=O (stereo not shown) [Example 8, 5-{4-[2-(5-Benzyl-2-oxooxazolidin-3-yl)propoxy]benzyl}thiazolidine-2,4-dione] | 4990 | 67.2 |
| CC(COc1ccc(CC2SC(=O)NC2=O)cc1)NCC(O)COCCCCCc1ccccc1 (stereo not shown) [Example 16, 5-{4-[2-(3-5'-Phenylpentyloxy-2-hydroxypropylamino)propoxy]benzyl}thiazolidine-2,4-dione] | 6590 | 59.2 |
| CC(COc1ccc(CC2SC(=O)NC2=O)cc1)NCC(O)COCCCCCCCCc1ccccc1 (stereo not shown) [Example 21, 5-{4-[2-(3-8'-Phenyloctyloxy-2-hydroxypropylamino)propoxy]benzyl}thiazolidine-2,4-dione] | 4610 | 58.7 |
| CC(COc1ccc(CC2SC(=O)NC2=O)cc1)N1CC(COCCc2ccccc2)OC1=O (stereo not shown) [Example 23, 5-{4-[2-(5-2'-Phenylethoxymethyl-2-oxooxazolidin-3-yl)propoxy]benzyl}thiazolidine-2,4-dione] | 3300 | 70.7 |
| CC(COc1ccc(CC2SC(=O)NC2=O)cc1)N1CC(COCCCCCCc2ccccc2)OC1=O (stereo not shown) [Example 27, 5-{4-[2-(5-6'-Phenylhexyloxymethyl-2-oxooxazolidin-3-yl)propoxy]benzyl}thiazolidine-2,4-dione] | 3510 | 54.9 |
| CC(COc1ccc(CC2SC(=O)NC2=O)cc1)N1CC(COc2cccc(F)c2)OC1=O (stereo not shown) [Example 30, 5-{4-[2-(5-3'-Fluorophenoxymethyl-2-oxooxazolidin-3-yl)propoxy]benzyl}thiazolidine-2,4-dione] | 3790 | 68.6 |
| CC(COc1ccc(CC2SC(=O)NC2=O)cc1)NCC(O)COc1cccc(N(C)C)c1 (stereo not shown) [Example 32, 5-{4-[2-(3-3'-Dimethylaminophenoxy-2-hydroxypropylamino)propoxy]benzyl}thiazolidine-2,4-dione] | 6120 | 54.6 |
| CC(COc1ccc(CC2SC(=O)NC2=O)cc1)NCC(O)COc1ccc(-c2ccccc2)cc1 (stereo not shown) [Example 34, 5-{4-[2-(3-4'-Phenylphenoxy-2-hydroxypropylamino)propoxy]benzyl}thiazolidine-2,4-dione] | 3750 | 62 |
| CC(COc1ccc(CC2SC(=O)NC2=O)cc1)NCC(O)CSc1ccccc1 (stereo not shown) [Example 37, 5-{4-[2-(3-Phenylthio-2-hydroxypropylamino)propoxy]benzyl}thiazolidine-2,4-dione] | 8730 | 55.2 |
| CCC(COc1ccc(CC2SC(=O)NC2=O)cc1)NCC(O)COc1cccc(Cl)c1 (stereo not shown) [Example 46, 5-{4-[2-(3-3'-Chlorophenoxy-2-hydroxypropylamino)butoxy]benzyl}thiazolidine-2,4-dione] | 6050 | 61 |
| O=C1NC(=O)C(Cc2ccc(OCCCCN3CC(COc4cccc(Cl)c4)OC3=O)cc2)S1 (stereo not shown) [Example 54, 5-{4-[4-(5-3'-Chlorophenoxymethyl-2-oxooxazolidin-3-yl)butoxy]benzyl}thiazolidine-2,4-dione] | 1980 | 69.1 |
| CC(COc1ccc(CC2SC(=O)NC2=O)cc1)N1CCOC(COc2cccc(Cl)c2)C1 (stereo not shown) [Example 55, 5-{4-[2-(2-3'-Chlorophenoxymethylmorpholino)propoxy]benzyl}thiazolidine-2,4-dione] | 2850 | 62.7 |

Next, values leading:

| IC50 [nM] | inhibition at 5 µg/mL [%] | Compound |
| --- | --- | --- |
| 1970 | 71.7 | CC(COc1ccc(CC2SC(=O)NC2=O)cc1)N1CC(COCCCc2ccccc2)OC1=O (single isomer, unassigned) [24 (less polar), 5-{4-[2-(5-3'-Phenylpropoxymethyl-2-oxooxazolidin-3-yl)propoxy]benzyl}thiazolidine-2,4-dione] |
| 789 | 88.3 | CC(CSc1ccc(CC2SC(=O)NC2=O)cc1)N1CC(COc2cccc(Cl)c2)OC1=O (stereo not shown) [10 (polar), 5-{4-[2-(5-3'-Chlorophenoxymethyl-2-oxooxazolidin-3-yl)propylthio]benzyl}thiazolidine-2,4-dione] |
| 863 | 88.1 | COc1ccc(OCC2CN(C(C)COc3ccc(CC4SC(=O)NC4=O)cc3)C(=O)O2)cc1 (stereo not shown) [31 (polar), 5-{4-[2-(5-4'-Methoxyphenoxymethyl-2-oxooxazolidin-3-yl)propoxy]benzyl}thiazolidine-2,4-dione] |
| 2410 | 84.5 | CC(COc1ccc(CC2SC(=O)NC2=O)cc1)N1CC(COc2ccccc2)OC1=O (stereo not shown) [Example 4, 5-{4-[2-(5-Phenoxymethyl-2-oxooxazolidin-3-yl)propoxy]benzyl}thiazolidine-2,4-dione] |
| 1040 | 74.2 | CC(COc1ccc(CC2SC(=O)NC2=O)cc1)N1CC(COCCCCCc2ccccc2)OC1=O (stereo not shown) [Example 26, 5-{4-[2-(5-5'-Phenylpentyloxymethyl-2-oxooxazolidin-3-yl)propoxy]benzyl}thiazolidine-2,4-dione] |
| 641 | 85.5 | CC(COc1ccc(CC2SC(=O)NC2=O)cc1)N1CC(COc2cccc(N(C)C)c2)OC1=O (stereo not shown) [Example 33, 5-{4-[2-(5-3'-Dimethylaminophenoxymethyl-2-oxooxazolidin-3-yl)propoxy]benzyl}thiazolidine-2,4-dione] |
| 1500 | 80.1 | CC(COc1ccc(CC2SC(=O)NC2=O)cc1)N1CC(CSc2ccccc2)OC1=O (stereo not shown) [Example 38, 5-{4-[2-(5-Phenylthiomethyl-2-oxooxazolidin-3-yl)propoxy]benzyl}thiazolidine-2,4-dione] |
| 1850 | 80.9 | CC(COc1ccc(CC2SC(=O)NC2=O)cc1)N1CC(CN(C)c2ccccc2)OC1=O (stereo not shown) [Example 40, 5-[4-{2-[5-(N-Methyl-N-phenylaminomethyl)-2-oxooxazolidin-3-yl]propoxy}benzyl]thiazolidine-2,4-dione] |
| 1880 | 74 | CC(COc1ccc(CC2SC(=O)NC2=O)cc1)N1CC(COCc2cccc(Cl)c2)OC1=O (stereo not shown) [Example 42, 5-{4-[2-(5-3'-Chlorobenzyloxymethyl-2-oxooxazolidin-3-yl)propoxy]benzyl}thiazolidine-2,4-dione] |
| 1170 | 65.9 | CC(COc1ccc(CC2SC(=O)NC2=O)cc1)N1CC(COCc2cccc(Cl)c2)OC1=S (stereo not shown) [Example 43, 5-{4-[2-(5-3'-Chlorobenzyloxymethyl-2-thioxooxazolidin-3-yl)propoxy]benzyl}thiazolidine-2,4-dione] |
| 1040 | 77.8 | CC(COc1ccc(CC2SC(=O)NC2=O)cc1)N1CC(COc2ccccc2)OC1=S (stereo not shown) [Example 49, 5-{4-[2-(5-Phenoxymethyl-2-thioxooxaolidin-3-yl)propoxy]benzyl}thiazolidine-2,4-dione] |
| 617 |  | CCCC(COc1ccc(CC2SC(=O)NC2=O)cc1)N1CC(COc2cccc(Cl)c2)OC1=O (stereo not shown) [Example 50, 5-{4-[2-(5-3'-Chlorophenoxymethyl-2-oxooxazolidin-3-yl)pentyloxy]benzyl}thiazolidine-2,4-dione] |
| 1860 | 72.8 | CC(C)(COc1ccc(CC2SC(=O)NC2=O)cc1)N1CC(COc2cccc(Cl)c2)OC1=O (stereo not shown) [Example 52, 5-{4-[2-(5,3'-Chlorophenoxymethyl-2-oxooxazolidin-3-yl)-2-methylpropoxy]benzyl}thiazolidine-2,4-dione] |
| 2410 | 77.6 | O=C1NC(=O)C(Cc2ccc(OCCCN3CC(COc4ccccc4)OC3=O)cc2)S1 (stereo not shown) [Example 53, 5-{4-[3-(5-Phenoxymethyl-2-oxooxazolidin-3-yl)propoxy]benzyl}thiazolidine-2,4-dione] |
